Biological target: T1, Human HPK1, catalytic domain (Homo sapiens, UniProt Q92918)
T1 sequence (Q92918 1-346): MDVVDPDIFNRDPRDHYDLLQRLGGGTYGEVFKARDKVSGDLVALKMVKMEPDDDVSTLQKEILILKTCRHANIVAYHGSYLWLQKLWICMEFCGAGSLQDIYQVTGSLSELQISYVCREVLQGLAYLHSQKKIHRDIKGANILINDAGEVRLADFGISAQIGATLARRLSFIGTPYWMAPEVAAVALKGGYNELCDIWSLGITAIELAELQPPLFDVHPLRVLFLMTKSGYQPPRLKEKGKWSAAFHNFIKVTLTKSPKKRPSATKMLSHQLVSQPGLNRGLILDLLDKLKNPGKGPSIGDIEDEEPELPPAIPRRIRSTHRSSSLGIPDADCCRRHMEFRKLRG
Experiment: HPK1-SLP76 TR-FRET Assay
Assay type: biochemical
Details: 75 pM HPK1, ATP 10 uM, SLP76 10 nM, 30 min pre-incubation, 60 min reaction

| Compound | IC50 [nM] |
| --- | --- |
| Cc1c(-c2c(F)c(N)c3cnc(Nc4ccc5c(c4)CN(C)CC54CC4)nc3c2Cl)cnc2c1NCCO2 [Compound 2-100, (+ or −)-8-chloro-6-fluoro-7-(8-methyl-2,3-dihydro-1H-pyrido[2,3-b][1,4]oxazin-7-yl)-N~2~- (2′-methyl-2′,3′-dihydro-1′H-spiro[cyclopropane-1,4′-isoquinolin]-7′-yl)quinazoline-2,5-diamine] | 1.19 |
| Cc1c(-c2c(F)c(N)c3cnc(Nc4ccc(CS(=O)(=O)C(C)C)cc4)nc3c2Cl)cnc2c1NCCO2 [Compound 2-133, (+ and −)-8-chloro-6-fluoro-7-(8-methyl-2,3-dihydro-1H-pyrido[2,3-b][1,4]oxazin-7-yl)-N~2~- (4-{[(propan-2-yl)sulfonyl]methyl}phenyl) quinazoline-2,5-diamine] | 0.405 |
| CNC(=O)Cc1ccc(Nc2ncc3c(N)c(F)c(-c4cnc5c(c4C)NCCO5)cc3n2)cc1 [Compound 2-13] | 0.0496 |
| Cc1c(-c2ccc3cnc(Nc4ccc(CS(=O)(=O)C(C)C)cc4)nc3c2)cnc2c1NCCO2 [Compound 1-129, N-(4-((isopropylsulfonyl)methyl)phenyl)-7-(8-methyl-2,3-dihydro-1H-pyrido[2,3-b][1,4]oxazin-7-yl)quinazolin-2-amine] | 0.0917 |
| COc1cc2c(cc1Nc1ncc3ccc(-c4cnc(C#N)c(C)c4)cc3n1)CN(C)CC2 [Compound 1-104, 5-{2-[(6-methoxy-2-methyl-1,2,3,4-tetrahydroisoquinolin-7-yl)amino]quinazolin-7-yl}-3-methylpyridine-2-carbonitrile] | 212 |
| CNC(=O)C(C)c1ccc(Nc2ncc3cc(F)c(-c4cnc5c(c4C)NCCO5)cc3n2)cc1 (single isomer, unassigned) [Compound 1-116, (R or S)-2-(4-{[6-fluoro-7-(8-methyl-2,3-dihydro-1H-pyrido[2,3-b][1,4]oxazin-7-yl)quinazolin-2-yl]amino}phenyl)-N-methylpropanamide] | 0.221 |
| COc1cc2c(cc1Nc1ncc3ccc(-c4ccc(NC(C)=O)nc4)cc3n1)CN(C)CC2 [Compound 1-18, N-(5-{2-[(6-methoxy-2-methyl-1,2,3,4-tetrahydroisoquinolin-7-yl)amino]quinazolin-7-yl}pyridin-2-yl)acetamide] | 82.2 |
| Cc1c(-c2c(F)c(N)c3cnc(Nc4ccc5c(c4)CN(C(C)C)CC5)nc3c2Cl)cnc2c1NCCO2 [Compound 2-96, (+ or −)-8-chloro-6-fluoro-7-(8-methyl-2,3-dihydro-1H-pyrido[2,3-b[1,4]oxazin-7-yl)-N~2~- [2-(propan-2-yl)-1,2,3,4-tetrahydroisoquinolin-7-yl]quinazoline-2,5-diamine] | 0.0825 |
| CNC(=O)C1CCc2cc(Nc3ncc4cc(F)c(-c5cnc6c(c5C)NCCO6)cc4n3)ccc21 (single isomer, unassigned) [Compound 1-119, (R or S)-5-{[6-fluoro-7-(8-methyl-2,3-dihydro-1H-pyrido[2,3-b][1,4]oxazin-7-yl)quinazolin-2-yl]amino}-N-methyl-2,3-dihydro-1H-indene-1-carboxamide] | 1.17 |
| Cc1c(-c2c(F)c(N)c3cnc(Nc4ccc(CS(C)(=O)=O)cc4F)nc3c2Cl)cnc2c1NCCO2 [Compound 2-135, 8-chloro-6-fluoro-N2-(2-fluoro-4-((methylsulfonyl)methyl)phenyl)-7-(8-methyl-2,3-dihydro-1H-pyrido[2,3-b][1,4]oxazin-7-yl)quinazoline-2,5-diamine] | 72.5 |
| Cc1c(-c2c(F)c(N)c3cnc(Nc4ccc(CS(C)(=O)=O)cc4F)nc3c2Cl)cnc2c1NCCO2 (single isomer, unassigned) [Compound 2-131, 8-chloro-6-fluoro-N2-(2-fluoro-4-((methylsulfonyl)methyl)phenyl)-7-(8-methyl-2,3-dihydro-1H-pyrido[2,3-b][1,4]oxazin-7-yl)quinazoline-2,5-diamine] | 0.126 |
| COc1cc(C(C)S(C)(=O)=O)ccc1Nc1ncc2c(N)c(F)c(-c3cnc4c(c3C)NCCO4)cc2n1 (single isomer, unassigned) [Compound 2-56, (R or S)-6-fluoro-N˜2˜-{2-methoxy-4-[1-(methylsulfonyl)ethyl]phenyl}-7-(8-methyl-2,3-dihydro-1H-pyrido[2,3-b][1,4]oxazin-7-yl)quinazoline-2,5-diamine] | 0.102 |
| Cc1c(-c2cc3nc(Nc4cc5c(cc4F)CCN(C)C5)ncc3c(N)c2F)cnc2c1NCCO2 [Compound 2-59, 6-fluoro-N~2~-(6-fluoro-2-methyl-1,2,3,4-tetrahydroisoquinolin-7-yl)-7-(8-methyl-2,3-dihydro-1H-pyrido[2,3-b][1,4]oxazin-7-yl)quinazoline-2,5-diamine] | 0.0508 |
| COc1cc2c(cc1Nc1ncc3ccc(-c4ccccc4N4CCOC4=O)cc3n1)CN(C)CC2 [Compound 1-10, 3-(2-{2-[(6-methoxy-2-methyl-1,2,3,4-tetrahydroisoquinolin-7-yl)amino]quinazolin-7-yl}phenyl)-1,3-oxazolidin-2-one] | 27 |
| Cc1c(-c2cc3nc(Nc4ccc5c(c4)CCS(=O)(=O)C5)ncc3c(N)c2F)cnc2c1NCCO2 [Compound 2-138, 6-{[5-amino-6-fluoro-7-(8-methyl-2,3-dihydro-1H-pyrido[2,3-b][1,4]oxazin-7-yl)quinazolin-2-yl]amino}-3,4-dihydro-2-benzothiopyran-2,2(1H)-dione] | 0.068 |
| Cc1c(-c2cc3nc(Nc4ccc5c(c4)CNCCC5)ncc3c(N)c2F)cnc2c1NCCO2 [Compound 2-120, 6-fluoro-7-(8-methyl-2,3-dihydro-1H-pyrido[2,3-b][1,4]oxazin-7-yl)-N~2~- (2,3,4,5-tetrahydro-1H-2-benzazepin-8-yl)quinazoline-2,5-diamine] | 0.0066 |
| COc1cc2c(cc1Nc1ncc3ccc(-c4cccc(O)c4)cc3n1)CNCC2 [Compound 1-59, 3-{2-[(6-methoxy-1,2,3,4-tetrahydroisoquinolin-7-yl)amino]quinazolin-7-yl}phenol] | 36.2 |

More lines, now with the values ahead:

| IC50 [nM] | Compound |
| --- | --- |
| 170 | COc1cc2c(cc1Nc1ncc3ccc(N[C@H]4CCCOCC4)cc3n1)CN(C)CC2 [Compound 3-47, (S)-N2-(6-methoxy-2-methyl-1,2,3,4-tetrahydroisoquinolin-7-yl)-N7-(oxepan-4-yl)quinaz-oline-2,7-diamine] |
| 0.0248 | Cc1c(-c2c(F)c(N)c3cnc(Nc4ccc5c(c4)CN(C)CC5)nc3c2Cl)cnc2c1NCCO2 (single isomer, unassigned) [Compound 2-180, (+ or −)-8-chloro-6-fluoro-7-(8-methyl-2,3-dihydro-1H-pyrido[2,3-b][1,4]oxazin-7-yl)-N~2~- (2-methyl-1,2,3,4-tetrahydroisoquinolin-7-yl)quinazoline-2,5-diamine] |
| 824 | COc1cc2c(cc1Nc1ncc3ccc(NC4(C(=O)N(C)C)CCC4)cc3n1)CN(C)CC2 [Compound 3-61, 1-({2-[(6-methoxy-2-methyl-1,2,3,4-tetrahydroisoquinolin-7-yl)amino]quinazolin-7-yl}-amino)-N,N-dimethylcyclo-butane-1-carboxamide] |
| 470 | COc1cc2c(cc1Nc1ncc3ccc(NC4CCCOC4)cc3n1)CN(C)CC2 (racemic) [Compound 3-69, (S and R)-N-2~-(6-methoxy-2-methyl-1,2,3,4-tetrahydroiso-quinolin-7-yl)-N~7~-(oxan-3-yl)quinazoline-2,7-diamine] |
| 100 | COc1nc(C2(C#N)CC2)ccc1Nc1ncc2c(N)c(F)c(-c3cnc4c(c3C)NCCO4)c(Cl)c2n1 [Compound 2-181, (+ or −)-1-(5-{[5-amino-8-chloro-6-fluoro-7-(8-methyl-2,3-dihydro-1H-pyrido[2,3-b][1,4]oxazin-7-yl)quinazolin-2-ylamino}-6-methoxypyridin-2-yl)cyclopropane-1-carbonitrile] |
| 68.5 | COc1cc2c(cc1Nc1ncc3ccc(Nc4cccc(N5CCN(C)C5=O)c4)cc3n1)CN(C)CC2 [Compound 3-43, 1-[3-({2-[(6-methoxy-2-methyl-1,2,3,4-tetrahydroisoquinolin-7-yl)amino]quinazolin-7-yl}-amino)phenyl]-3-methylimidaz-olidin-2-one] |
| 15.2 | COc1cc2c(cc1Nc1ncc3ccc(OCc4ccc(N5CCNCC5)nc4)cc3n1)CN(C)CC2 [Compound 4-1, N-(6-methoxy-2-methyl-1,2,3,4-tetrahydroisoquin-olin-7-yl)-7-{[6-(piperazin-1-yl)pyridin-3-yl]methoxy}-quinazolin-2-amine] |
| 0.0298 | Cc1c(-c2cc3nc(Nc4cnc5c(c4)CN(C(C)C)CC5)ncc3c(N)c2F)cnc2c1NCCO2 [Compound 2-175, 6-fluoro-7-(8-methyl-2,3-dihydro-1H-pyrido[2,3-b][1,4]oxazin-7-yl)-N~2~- [6-(propan-2-yl)-5,6,7,8-tetrahydro-1,6-naphthyridin-3-yl]quinazoline-2,5-diamine] |
| 30.4 | COc1cc2c(cc1Nc1ncc3ccc(Nc4ccc5c(c4)C(=O)NCC5)cc3n1)CN(C)CC2 [Compound 3-21, 7-({2-[(6-methoxy-2-methyl-1,2,3,4-tetrahydroisoquinolin-7-yl)amino]quinazolin-7-yl}-amino)-3,4-dihydroisoquinolin-1(2H)-one] |
| 24.6 | CCC1COC(=O)N1c1ccc2cnc(Nc3cc4c(cc3OC)CCN(C)C4)nc2c1 (single isomer, unassigned) [Compound 3-14, (S or R)-4-ethyl-3-{2-[(6-methoxy-2-methyl-1,2,3,4-tetrahydroisoquinolin-7-yl)amino]quinazolin-7-yl}-1,3-oxazolidin-2-one] |
| 118 | COc1cc2c(cc1Nc1ncc3ccc(N[C@H]4CC[C@@H](O)CC4)cc3n1)CN(C)CC2 [Compound 3-46, (1s,4s)-4-((2-((6-methoxy-2-methyl-1,2,3,4-tetrahydroiso-quinolin-7-yl)amino)quinazolin-7-yl)amino)cyclohexan-1-ol] |
